Reference: patent EP0276057B1, “Piperazinylpyrimidines as beta-adrenergic receptor blocking agents” (Merck & Co., Inc., priority 1987, dated 1988)

Legend:
ß1 = ß1 (Homo sapiens, UniProt P08588); experiment: Block of ligand binding to β-adrenergic receptor, ß1; conditions: for IC50: read-out: Concentration (nM) To Block Binding of Ligand by 50% ß1; for inhibition at 10 µM: at 10,000 nM, 50% blockade not achieved at reasonable concentrations, read-out: % blocked at nM concentration shown ß1
ß2 = ß2 (Homo sapiens, UniProt P07550); experiment: Block of ligand binding to β-adrenergic receptor, ß2; conditions: for IC50: read-out: Concentration (nM) To Block Binding of Ligand by 50% ß2; for inhibition at 10 µM: at 10,000 nM, 50% blockade not achieved at reasonable concentrations, read-out: % blocked at nM concentration shown ß2
Chain of ß2 (P07550 whole entry): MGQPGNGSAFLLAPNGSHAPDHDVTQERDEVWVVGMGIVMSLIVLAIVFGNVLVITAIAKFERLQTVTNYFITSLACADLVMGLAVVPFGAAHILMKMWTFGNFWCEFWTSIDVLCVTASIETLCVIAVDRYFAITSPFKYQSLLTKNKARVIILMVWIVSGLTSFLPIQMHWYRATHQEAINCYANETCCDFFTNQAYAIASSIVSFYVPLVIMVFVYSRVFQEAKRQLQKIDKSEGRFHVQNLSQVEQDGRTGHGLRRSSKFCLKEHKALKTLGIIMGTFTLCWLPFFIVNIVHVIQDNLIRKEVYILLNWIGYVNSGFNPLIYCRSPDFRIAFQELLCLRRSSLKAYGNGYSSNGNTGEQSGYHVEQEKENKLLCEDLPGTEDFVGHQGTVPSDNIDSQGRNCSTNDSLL

Chain of ß1 (P08588 whole entry): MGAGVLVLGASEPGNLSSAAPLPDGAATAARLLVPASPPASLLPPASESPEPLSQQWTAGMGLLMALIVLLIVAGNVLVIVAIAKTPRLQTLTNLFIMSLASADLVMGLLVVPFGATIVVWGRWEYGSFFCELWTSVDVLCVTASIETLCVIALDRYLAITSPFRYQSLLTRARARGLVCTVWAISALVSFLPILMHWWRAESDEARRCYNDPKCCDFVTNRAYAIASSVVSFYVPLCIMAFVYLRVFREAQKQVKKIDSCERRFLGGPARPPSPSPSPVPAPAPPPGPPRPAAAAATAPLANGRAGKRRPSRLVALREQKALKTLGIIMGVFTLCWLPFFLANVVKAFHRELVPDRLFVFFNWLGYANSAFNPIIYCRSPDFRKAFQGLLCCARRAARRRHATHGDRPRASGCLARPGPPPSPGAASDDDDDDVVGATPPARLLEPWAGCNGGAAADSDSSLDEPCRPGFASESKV

Structure (SMILES)	IC50 (ß1) [nM]	IC50 (ß2) [nM]	inhibition at 10 µM (ß1) [%]	inhibition at 10 µM (ß2) [%]
CCc1nc(N2CCN(C)CC2)c2sccc2n1	2400	1040		
CCCCc1nc2c(c(N3CCN(C)CC3)n1)SCCC2	4300	4800		
CCN1CCN(c2nc(C)nc3c2SCCC3)CC1		27000	3	
Cc1nc2c(c(N3CCN(Cc4ccccc4)CC3)n1)SCCC2			0	0
Cc1nc2c(c(N3CCN(C)CC3)n1)CSC2			15	24
Cc1nc2c(c(N3CCN(C4CC4)CC3)n1)SCCC2			6	8
CCc1nc(N2CCNCC2)c2sccc2n1 [R^1 = -C2H5, R^2 = H (the 2nd table r0 drawing)]	300	140		
Cc1nc2c(c(N3CCNCC3)n1)SCCC2 [R^1 = -CH3, R^2 = H (the 1st table r1 drawing)]	680	314		
Cc1nc2c(c(N3CCNCC3)n1)CSC2 [R^1 = -CH3, R^2 = H (the 1st table r11 drawing)]	820	340		
